Laboratory results from patent US20110052730A1, “Leaves Extract of Panax sp., a Process of Making the Same and Uses Thereof” (UNIGEN, INC., priority 2008, published 2011).

Test: Physicochemical properties of ginsenosides (soluble in)

SMILES	Soluble in
CC(C)=CC/C=C(/C)C1CCC2(C)C1[C@H](O)CC1[C@@]3(C)CCC(OC4OC(CO)C(O)C(O)C4OC4OC(CO)C(O)C(O)C4O)C(C)(C)C3CC[C@]12C (some centres unmarked) [Rg5]	Alcohol
C=C(CCC=C(C)C)C1CCC2(C)C1[C@H](O)CC1[C@@]3(C)CCC(OC4OC(CO)C(O)C(O)C4OC4OC(CO)C(O)C(O)C4O)C(C)(C)C3CC[C@]12C (some centres unmarked) [Rk1]	Alcohol
